Read-outs that look alike come from different tables or passages of the source.
How the values were obtained:
hT2R7 = hT2R7 (Homo sapiens (Human), UniProt Q9NYW3); test: hT2R panel inhibition, transient HEK293 G16g44, agonist Chloroquine pH6.5 10 mM; assay type: cell-based; conditions: HEK293, compound at 25 μM; receptor activated to EC80 with the corresponding agonist; read-out: screening result against bitter receptor 7
Experimental: (§1) Specifically, in order to evaluate the inhibitory selectivity of the Compound C compound, this compound was tested against 22 human T2Rs which were deorphaned by Senomyx. These receptors and the bitter ligands that activate these human T2Rs are reported in earlier patent applications which are incorporated by reference herein. These 22 human T2Rs are hT2R1, 3, 4, 5, 7, 8, 9, 10, 13, 14, 16, 44, 51, 54, 55, 61, 63, 64, 65, 67, 71 and 75. The amino acid and nucleic acid sequences of all of these T2Rs may be found in these earlier patent applications. These human T2Rs were each individually transiently transfected into HEK293 cells that stably express the promiscuous G protein G16g44 and functional assays were effected using these receptors as disclosed in these same patent applications. […] The ligands were used at EC80 concentration levels. The list of bitter ligands utilized and the tested ligand concentrations are contained in Table 5 of this example.
(§2) Relating to the foregoing, FIG. 5 contains experimental results wherein Compound C was tested with different agonist compounds. The inhibition activity is represented by the reduction of receptor activity in the presence of Compound C. […] These 13 hT2Rs are hT2R3, 7, 10, 14, 16, 44, 51, 55, 61, 63, 64, 65, and 71.

hT2R71 = hT2R71 (Homo sapiens (Human), UniProt P59536); test: hT2R panel inhibition, transient HEK293 G16g44, agonist Picric Acid 10 μM; assay type: cell-based; conditions: HEK293, compound at 25 μM
Sequence of hT2R71 (P59536 whole entry): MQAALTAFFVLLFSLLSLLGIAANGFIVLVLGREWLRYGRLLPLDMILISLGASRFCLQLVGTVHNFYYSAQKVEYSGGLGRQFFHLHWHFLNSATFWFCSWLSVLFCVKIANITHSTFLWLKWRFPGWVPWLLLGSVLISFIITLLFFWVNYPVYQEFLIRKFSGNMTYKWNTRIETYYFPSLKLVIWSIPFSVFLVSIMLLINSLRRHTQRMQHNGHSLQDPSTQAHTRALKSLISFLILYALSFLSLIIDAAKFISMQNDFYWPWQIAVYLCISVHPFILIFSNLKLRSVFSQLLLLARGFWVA
Experimental: as §1, §2

hT2R14 [1] = biological target: T1, hT2R14 (Homo sapiens (Human), UniProt Q9NYV8); test: hT2R panel inhibition, transient HEK293 G16g44, agonist Aristolochic Acid 2 μM; assay type: cell-based; conditions: HEK293, compound at 25 μM
T1 sequence (Q9NYV8 whole entry): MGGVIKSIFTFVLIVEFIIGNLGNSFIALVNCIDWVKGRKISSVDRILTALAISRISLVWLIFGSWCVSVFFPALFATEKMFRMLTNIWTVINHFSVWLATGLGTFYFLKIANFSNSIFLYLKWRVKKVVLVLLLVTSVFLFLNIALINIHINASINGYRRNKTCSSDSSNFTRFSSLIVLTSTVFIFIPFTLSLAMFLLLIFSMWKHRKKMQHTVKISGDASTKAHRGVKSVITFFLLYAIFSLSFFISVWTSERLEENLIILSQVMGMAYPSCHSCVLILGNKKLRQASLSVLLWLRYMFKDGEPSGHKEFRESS
Experimental: as §1

hT2R61 = hT2R61 (Homo sapiens (Human), UniProt P59537); test: hT2R panel inhibition, transient HEK293 G16g44, agonist Aristolochic Acid 25 nM; assay type: cell-based; conditions: HEK293, compound at 25 μM
Sequence of hT2R61 (P59537 whole entry): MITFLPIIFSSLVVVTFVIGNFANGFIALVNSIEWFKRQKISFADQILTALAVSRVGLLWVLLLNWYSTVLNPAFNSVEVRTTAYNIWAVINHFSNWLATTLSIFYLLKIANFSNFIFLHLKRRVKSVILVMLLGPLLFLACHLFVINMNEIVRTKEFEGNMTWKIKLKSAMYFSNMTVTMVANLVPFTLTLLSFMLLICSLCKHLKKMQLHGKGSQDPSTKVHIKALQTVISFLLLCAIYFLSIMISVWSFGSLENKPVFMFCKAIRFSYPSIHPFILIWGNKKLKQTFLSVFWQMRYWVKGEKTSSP
Experimental: as §1, §2

hT2R10 = hT2R10 (Homo sapiens (Human), UniProt Q9NYW0); test: hT2R panel inhibition, transient HEK293 G16g44, agonist Strychnine 50 μM; assay type: cell-based; conditions: HEK293, read-out: screening result against bitter receptor 10, compound at 25 μM; receptor activated to EC80 with the corresponding agonist
Sequence of hT2R10 (Q9NYW0 whole entry): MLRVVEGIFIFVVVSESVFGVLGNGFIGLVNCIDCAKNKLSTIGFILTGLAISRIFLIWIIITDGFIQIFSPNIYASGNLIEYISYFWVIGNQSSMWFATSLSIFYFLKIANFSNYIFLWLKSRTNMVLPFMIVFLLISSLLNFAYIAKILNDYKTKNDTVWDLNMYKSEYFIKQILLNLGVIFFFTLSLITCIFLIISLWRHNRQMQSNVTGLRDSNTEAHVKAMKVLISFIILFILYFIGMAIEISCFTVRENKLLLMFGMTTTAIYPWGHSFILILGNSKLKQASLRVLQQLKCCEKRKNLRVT
Experimental: as §1, §2

hT2R55 = test: hT2R panel inhibition, transient HEK293 G16g44, agonist Cinchonine 150 μM; assay type: cell-based, human; conditions: compound at 25 μM; for screening result against bitter receptor 55: receptor activated to EC80 with the corresponding agonist
Experimental: as §1, §2

hT2R64 = hT2R64 (Homo sapiens (Human), UniProt P59538); test: hT2R panel inhibition, transient HEK293 G16g44, agonist Aristolochic Acid 1 μM; assay type: cell-based; conditions: HEK293, compound at 25 μM
Sequence of hT2R64 (P59538 whole entry): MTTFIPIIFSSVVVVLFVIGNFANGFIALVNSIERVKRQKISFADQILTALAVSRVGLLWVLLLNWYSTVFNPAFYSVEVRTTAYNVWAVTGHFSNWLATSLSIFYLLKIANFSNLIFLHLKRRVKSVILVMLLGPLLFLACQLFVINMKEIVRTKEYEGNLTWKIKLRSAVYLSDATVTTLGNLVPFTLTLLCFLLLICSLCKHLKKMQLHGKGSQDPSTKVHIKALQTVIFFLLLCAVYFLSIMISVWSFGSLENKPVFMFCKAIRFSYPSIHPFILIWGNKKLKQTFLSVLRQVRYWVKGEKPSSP
Experimental: as §1, §2

hT2R51 = hT2R51 (Homo sapiens (Human), UniProt P59533); test: hT2R panel inhibition, transient HEK293 G16g44, agonist Prop 2.5 μM; assay type: cell-based; conditions: HEK293, compound at 25 μM; receptor activated to EC80 with the corresponding agonist; read-out: screening result against bitter receptor 51
Sequence of hT2R51 (P59533 whole entry): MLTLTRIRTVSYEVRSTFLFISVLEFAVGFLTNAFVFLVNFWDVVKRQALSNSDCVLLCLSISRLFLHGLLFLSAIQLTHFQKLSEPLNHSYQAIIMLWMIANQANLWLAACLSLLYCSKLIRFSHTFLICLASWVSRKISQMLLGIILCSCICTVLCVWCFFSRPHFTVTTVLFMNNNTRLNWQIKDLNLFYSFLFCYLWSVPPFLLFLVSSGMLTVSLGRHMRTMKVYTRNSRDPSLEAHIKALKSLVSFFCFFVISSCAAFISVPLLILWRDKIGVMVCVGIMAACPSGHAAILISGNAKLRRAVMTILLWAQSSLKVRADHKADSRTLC
Experimental: as §1, §2

hT2R67 = test: hT2R panel inhibition, transient HEK293 G16g44, agonist Andrographolide 5 μM; assay type: cell-based, human; conditions: compound at 25 μM; for screening result against bitter receptor 67: receptor activated to EC80 with the corresponding agonist
Experimental: as §1, §2

hT2R63 = test: hT2R panel inhibition, transient HEK293 G16g44, agonist Caffeine 1 mM or Andrographolide 100 μM; assay type: cell-based, human; conditions: compound at 25 μM; for screening result against bitter receptor 63: receptor activated to EC80 with the corresponding agonist
Experimental: as §1, §2

hT2R3 = hT2R3 (Homo sapiens (Human), UniProt Q9NYW6); test: hT2R panel inhibition, transient HEK293 G16g44, agonist Chloroquine pH6.5 50 μM; assay type: cell-based; conditions: HEK293, compound at 25 μM; receptor activated to EC80 with the corresponding agonist; read-out: screening result against bitter receptor 3
Sequence of hT2R3 (Q9NYW6 whole entry): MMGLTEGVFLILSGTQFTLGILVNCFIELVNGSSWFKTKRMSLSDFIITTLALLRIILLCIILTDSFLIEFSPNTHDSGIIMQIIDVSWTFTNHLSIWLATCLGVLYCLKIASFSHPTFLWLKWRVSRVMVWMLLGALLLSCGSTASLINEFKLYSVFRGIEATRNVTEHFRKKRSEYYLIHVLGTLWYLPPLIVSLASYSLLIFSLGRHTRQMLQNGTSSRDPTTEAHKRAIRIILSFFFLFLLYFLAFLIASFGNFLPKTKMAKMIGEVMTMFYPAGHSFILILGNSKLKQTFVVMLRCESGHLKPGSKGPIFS
Experimental: as §1, §2

hT2R44 = test: hT2R panel inhibition, transient HEK293 G16g44, agonist Denatonium 0.5 μM; assay type: cell-based, human; conditions: compound at 25 μM; for screening result against bitter receptor 44: receptor activated to EC80 with the corresponding agonist
Experimental: as §1, §2

hT2R16 = hT2R16 (Homo sapiens (Human), UniProt Q9NYV7); test: hT2R panel inhibition, transient HEK293 G16g44, agonist Salicin 1 mM; assay type: cell-based; conditions: HEK293, compound at 25 μM
Sequence of hT2R16 (Q9NYV7 whole entry): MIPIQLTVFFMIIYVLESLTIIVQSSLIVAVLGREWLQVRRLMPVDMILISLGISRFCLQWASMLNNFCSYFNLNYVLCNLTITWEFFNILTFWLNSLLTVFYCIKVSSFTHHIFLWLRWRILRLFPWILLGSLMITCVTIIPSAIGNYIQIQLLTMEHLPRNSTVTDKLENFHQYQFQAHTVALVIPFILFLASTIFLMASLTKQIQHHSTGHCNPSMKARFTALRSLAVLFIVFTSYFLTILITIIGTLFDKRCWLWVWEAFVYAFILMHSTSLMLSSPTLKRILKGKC
Experimental: as §1, §2

hT2R65 = test: hT2R panel inhibition, transient HEK293 G16g44, agonist Oleuropein 1 mM; assay type: cell-based, human; conditions: compound at 25 μM; receptor activated to EC80 with the corresponding agonist
Experimental: as §1, §2

hT2R54 = test: hT2R panel inhibition, transient HEK293 G16g44, agonist Ranitidine 5 mM; assay type: cell-based, human; conditions: compound at 25 μM; for screening result against bitter receptor 54: receptor activated to EC80 with the corresponding agonist; for inhibition of bitter receptor 54: receptor activated to EC80 with agonist
Experimental: as §1, §2

hT2R5 = hT2R5 (Homo sapiens (Human), UniProt Q9NYW4); test: hT2R panel inhibition, transient HEK293 G16g44, agonist Picoline 10 mM; assay type: cell-based; conditions: HEK293, compound at 25 μM; receptor activated to EC80 with the corresponding agonist; read-out: screening result against bitter receptor 5
Sequence of hT2R5 (Q9NYW4 whole entry): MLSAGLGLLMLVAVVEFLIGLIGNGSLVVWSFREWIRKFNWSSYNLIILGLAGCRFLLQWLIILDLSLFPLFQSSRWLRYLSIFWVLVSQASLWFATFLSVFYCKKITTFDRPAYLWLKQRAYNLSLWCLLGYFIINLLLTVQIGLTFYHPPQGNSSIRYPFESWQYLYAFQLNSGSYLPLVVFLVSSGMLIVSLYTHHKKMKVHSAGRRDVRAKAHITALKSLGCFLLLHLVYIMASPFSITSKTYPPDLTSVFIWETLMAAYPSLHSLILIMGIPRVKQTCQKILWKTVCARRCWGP
Experimental: as §1, §2

hT2R14 [2] = biological target: T1, hT2R14; test: hT2R14 antagonist high-throughput FLIPR assay, stable cell line with G16g44, agonist aristolochic acid; assay type: cell-based
How it was run: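 HEK293 cells stably expressing hT2R14 with chimeric G16g44 were stimulated with aristolochic acid (3 μM), giving 70-80% of maximal receptor activity. Test compounds were added together with the agonist, and antagonism was read as fluorescent calcium signal on FLIPR.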

[3] = receptor activated to EC80 with the corresponding agonist, read-out: screening result against bitter receptor 71
[4] = receptor activated to EC80 with the corresponding agonist, read-out: screening result against bitter receptor 14
[5] = receptor activated to EC80 with the corresponding agonist, read-out: screening result against bitter receptor 61
[6] = receptor activated to EC80 with the corresponding agonist, read-out: screening result against bitter receptor 64
[7] = receptor activated to EC80 with the corresponding agonist, read-out: screening result against bitter receptor 16
[8] = receptor activated to EC80 with agonist, read-out: inhibition of bitter receptor 14
[9] = receptor activated to EC80 with agonist

Sequence of hT2R7 (Q9NYW3 whole entry): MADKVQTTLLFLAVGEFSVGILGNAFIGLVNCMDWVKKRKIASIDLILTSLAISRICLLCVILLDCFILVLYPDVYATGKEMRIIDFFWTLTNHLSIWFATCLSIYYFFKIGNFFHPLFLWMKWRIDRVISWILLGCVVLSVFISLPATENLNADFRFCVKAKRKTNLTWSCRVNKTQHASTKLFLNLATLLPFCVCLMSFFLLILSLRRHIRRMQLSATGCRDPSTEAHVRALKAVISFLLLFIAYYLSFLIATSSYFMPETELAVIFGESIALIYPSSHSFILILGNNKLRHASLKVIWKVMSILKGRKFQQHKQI

SMILES	inhibition at 25 µM (hT2R7)	inhibition at 25 µM (hT2R71; [3])	inhibition at 25 µM (hT2R14 [1]; [4])	inhibition at 25 µM (hT2R61; [5])	inhibition at 25 µM (hT2R10)	screening result against bitter receptor 55 (hT2R55)	inhibition at 25 µM (hT2R64; [6])	screening result against bitter receptor 67 (hT2R67)	screening result against bitter receptor 63 (hT2R63)	inhibition at 25 µM (hT2R3)	screening result against bitter receptor 44 (hT2R44)	inhibition at 25 µM (hT2R16; [7])	screening result against bitter receptor 65 (hT2R65)	screening result against bitter receptor 54 (hT2R54)	inhibition at 25 µM (hT2R5)	also measured
COc1ccc(CCN(Cc2ccccc2)S(=O)(=O)c2ccc(C(=O)O)cc2)cc1 [Example 5-81, 4-(N-benzyl-N-(4-methoxyphenethyl)sulfamoyl)benzoic acid]	20 to 40%	20 to 40%	> 80%	60 to 80%	20 to 40%	+++ (60% to 80% inhibition = +++)	40 to 60%	+ (20% to 40% inhibition = +)	+++ (60% to 80% inhibition = +++)	20 to 40%	++ (40% to 60% inhibition = ++)	20 to 40%	+ (20% to 40% inhibition = +)			inhibition at 25 µM (hT2R51): 20 to 40%
COc1ccc(CN(Cc2ccc(F)c(F)c2)S(=O)(=O)c2ccc(C(=O)O)cc2)cc1 [Example 5-36, 4-(N-(3,4-difluorobenzyl)-N-(4-methoxybenzyl)sulfamoyl)benzoic acid]	20 to 40%	60 to 80%	> 80%	> 80%	20 to 40%	++++ (80% or greater inhibition = ++++)	> 80%		+++ (60% to 80% inhibition = +++)	40 to 60%	++ (40% to 60% inhibition = ++)	20 to 40%	++ (40% to 60% inhibition = ++)	+ (20% to 40% inhibition = +)		
COc1ccc2c(c1)-c1ccccc1CN(S(=O)(=O)c1ccc(C(=O)O)cc1)C2 [Example 5-106, 4-(2-methoxy-5H-dibenzo[c,e]azepin-6(7H)-ylsulfonyl)benzoic acid]																inhibition at 25 µM (hT2R71; receptor activated to EC80 with agonist, read-out: inhibition of bitter receptor 71): 20 to 40%; inhibition at 25 µM (hT2R14 [1]; [8]): > 80%; inhibition at 25 µM (hT2R61; receptor activated to EC80 with agonist, read-out: inhibition of bitter receptor 61): 40 to 60%; inhibition of bitter receptor 55 (hT2R55; [9]): ++++ (80% or greater inhibition = ++++); inhibition at 25 µM (hT2R64; receptor activated to EC80 with agonist, read-out: inhibition of bitter receptor 64): 60 to 80%; inhibition of bitter receptor 67 (hT2R67; [9]): + (20% to 40% inhibition = +); inhibition of bitter receptor 63 (hT2R63; [9]): ++++ (80% or greater inhibition = ++++); inhibition of bitter receptor 44 (hT2R44; [9]): ++ (40% to 60% inhibition = ++); inhibition at 25 µM (hT2R16; receptor activated to EC80 with agonist, read-out: inhibition of bitter receptor 16): 20 to 40%; inhibition of bitter receptor 54 (hT2R54): ++ (40% to 60% inhibition = ++)
COc1ccc(CN(c2ccccc2)S(=O)(=O)c2ccc(C(=O)O)cc2)cc1 [Example 5-18, 4-(N-(4-methoxybenzyl)-N-phenylsulfamoyl)benzoic acid]		40 to 60%		60 to 80%	> 80%	++++ (80% or greater inhibition = ++++)	> 80%		+++ (60% to 80% inhibition = +++)		+++ (60% to 80% inhibition = +++)	40 to 60%	+ (20% to 40% inhibition = +)	++ (40% to 60% inhibition = ++)		
N#Cc1ccc(CN(Cc2ccccc2)S(=O)(=O)c2ccc(C(=O)O)cc2)cc1 [Example 5-91, 4-(N-benzyl-N-(4-cyanobenzyl)sulfamoyl)benzoic acid]		60 to 80%	> 80%	> 80%	40 to 60%	++++ (80% or greater inhibition = ++++)	> 80%	+ (20% to 40% inhibition = +)	++++ (80% or greater inhibition = ++++)	60 to 80%	+++ (60% to 80% inhibition = +++)	20 to 40%		+ (20% to 40% inhibition = +)	20 to 40%	
COc1ccc(N(Cc2ccccc2)S(=O)(=O)c2ccc(C(=O)O)cc2)cc1 [Example 5-35, 4-(N-benzyl-N-(4-methoxyphenyl)sulfamoyl)benzoic acid]	20 to 40%	40 to 60%	20 to 40%	> 80%		+++ (60% to 80% inhibition = +++)	20 to 40%		+++ (60% to 80% inhibition = +++)	20 to 40%	+ (20% to 40% inhibition = +)	20 to 40%		+ (20% to 40% inhibition = +)	20 to 40%	
O=C(O)c1ccc(CN(Cc2ccccc2)S(=O)(=O)c2ccc(C(=O)O)cc2)cc1 [Example 5-48, 4-((N-benzyl-4-carboxyphenylsulfonamido)methyl)benzoic acid]		60 to 80%	> 80%	> 80%	60 to 80%	++++ (80% or greater inhibition = ++++)	60 to 80%	+ (20% to 40% inhibition = +)		40 to 60%	+++ (60% to 80% inhibition = +++)	20 to 40%	++ (40% to 60% inhibition = ++)	++ (40% to 60% inhibition = ++)	20 to 40%	
COc1ccc(CN(CCc2ccccc2)S(=O)(=O)c2ccc(C(=O)O)cc2)cc1 [Example 5-19, 4-(N-(4-methoxybenzyl)-N-phenethylsulfamoyl)benzoic acid]		20 to 40%	> 80%		20 to 40%	++++ (80% or greater inhibition = ++++)	> 80%			20 to 40%	++ (40% to 60% inhibition = ++)	20 to 40%	+ (20% to 40% inhibition = +)	+ (20% to 40% inhibition = +)	20 to 40%	IC50 (hT2R14 [2]; read-out: IC50 on hT2R14 bitter receptor): 4580 nM
Cn1c(=O)c2cc(S(=O)(=O)Nc3ccc4c(c3)OCCO4)ccc2n(C)c1=O [Example 6-6, N-(2,3-dihydrobenzo[b][1,4]dioxin-6-yl)-1,3-dimethyl-2,4-dioxo-1,2,3,4-tetrahydroquinazoline-6-sulfonamide]																inhibition at 25 µM (hT2R14 [1]; [8]): > 80%; screening result against bitter receptor 55, printed as a number (meaning not defined) (hT2R55; receptor activated to EC80 with agonist, numeric cell): 210; IC50 (hT2R14 [2]; Table D, read-out: hT2R14 IC50): 706 nM; inhibition of bitter receptor 54 (hT2R54): + (20% to 40% inhibition = +)
